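96-well plates; 48 h exposure; 5 concentrations. Endpoints by linear interpolation between flanking doses. Not reached: highest tested concentration assigned. At the GI50, growth is halved. TGI is the concentration that stops growth completely.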 Bounds are passed on as bounds.

Assay in all cases: inhibition of tumour cell growth, NCI panel, 48 h
Assay [1] relates to HL-60(TB) leukemia.
The subject of assay [2] is HOP-62 NSCLC.
Assay [3] has as its system HOP-92 NSCLC.
The subject of assay [4] is MALME-3M melanoma.
Assay [5] relates to NCI-H23 lung.
Assay [6] has as its system OVCAR-3 ovarian.
The test system of assay [7] is SK-MEL-2 melanoma.
Assay [8] deals with SK-MEL-5 melanoma.
Assay [9] deals with SNB-19 CNS.
For assay [10], the system named is UO-31 renal.

Take `N=C1N(c2ccccc2)C(=O)C23CCCC2C13N1CCOCC1` (centres undefined): the TGI in assay [1], in assay [2], in assay [3], in assay [4], in assay [5] and in assay [6] was greater than 100 µM each time. Besides, the TGI in assay [7], in [8], in [9] and in [10] was greater than 100 µM each time.
As for `O=C(Nc1nccs1)c1cc2c(cc1Cl)Sc1nccn1S2(=O)=O`, the GI50 in assay [1] is 13.6 µM; in [2] it was 14.8 µM; in [4] it was 20 µM; in assay [5], 16.9 µM; in [6], 15 µM; in assay [7], 17.4 µM. The GI50 in assay [8] is 16.5 µM; in assay [9] it was 18.9 µM; in assay [10], 4.41 µM. Moreover, the TGI in [1] was 31.2 µM; in assay [2], 30.2 µM; in [3] it was 39.4 µM; in assay [4] it was 37.2 µM; in assay [5] it was 33.7 µM; in assay [6], 28.3 µM. Moreover, the TGI in [7] came out at 33.1 µM; in assay [8], 30 µM; in assay [9], 37 µM; in assay [10], 14.7 µM.
On to `C/C(CC(=O)NNc1ccc([N+](=O)[O-])cc1)=N\Nc1ccc([N+](=O)[O-])cc1`, for which the GI50 in [1] is 2.48 µM; in [2], 14.2 µM; in assay [3], 7.94 µM; in assay [4], 10.6 µM; in [5] it was 15 µM; in [6], 8.03 µM. Moreover, the GI50 in assay [7] was 11 µM; in [8], 2.13 µM; in assay [9], 29.7 µM; in assay [10], 1.88 µM. Besides, the TGI in [1] is greater than 100 µM; in assay [2] it was 38 µM; in assay [3] it was 28.3 µM; in [4], 66.5 µM; in assay [5] it was 39.3 µM; in [6] it was 31.1 µM. Besides, the TGI in assay [7] is 87.5 µM; in assay [8], 5.42 µM; in assay [9], greater than 100 µM; in [10], greater than 100 µM.
`C=C[C@]1(C)CCC2=C(CCC3C2(C)CCC[C@]3(C)CO)C1` (some centres undefined): the TGI in [1] was 52.2 µM; in assay [2] it was greater than 100 µM; in [3], greater than 100 µM; in assay [4] it was greater than 100 µM; in [5], greater than 100 µM; in assay [6] it was greater than 100 µM. Besides, the TGI in [7], in assay [8], in [9] and in [10] was greater than 100 µM each time.
As to `C=C1C(=O)O[C@H]2[C@H]1CC/C(COC(=O)CCCCCCCCC(=O)OC/C1=C/CC[C@@]3(C)O[C@H]3[C@H]3OC(=O)C(=C)[C@@H]3CC1)=C\CC[C@@]1(C)O[C@@H]21`, the GI50 in assay [1] is 2.05 µM; in assay [2] it was 2.03 µM; in assay [3], 1.94 µM; in assay [4], 1.84 µM; in assay [5], 2 µM; in [6], 1.67 µM. Further, the GI50 was 2.8 µM in assay [7], 1.91 µM in assay [8], 2.45 µM in assay [9] and 1.47 µM in assay [10]. In addition, the TGI in assay [1] was determined as 8.26 µM; in assay [2] it was 4.65 µM; in [3], 4.38 µM; in assay [4], 3.97 µM; in [5] it was 4.25 µM; in [6] it was 3.11 µM. The TGI worked out at 8.2 µM in assay [7], 3.48 µM in [8], 6.51 µM in [9] and 2.95 µM in assay [10].
As for `COc1ccc(/C(C)=C(\c2ccc(Cl)cc2)c2ccc(OCCN3CCCC3)cc2)cc1F`, the GI50 in assay [1] was 3.54 µM; in assay [2] it was 3.92 µM; in assay [3], 3.12 µM; in assay [4], 1.23 µM; in assay [5], 3.55 µM; in assay [6], 3.93 µM. Further, the GI50 in assay [7] is 4.27 µM; in assay [8], 4.1 µM; in assay [9], 3.87 µM; in [10], 2.95 µM. Further, the TGI was 7.89 µM in assay [1]; 8.22 µM in assay [2]; 6.63 µM in assay [3]; 4.63 µM in [4]; 7.27 µM in [5]; 8.38 µM in assay [6]. Moreover, the TGI in assay [7] was 8.4 µM; in assay [8], 7.78 µM; in [9] it was 7.41 µM; in assay [10] it was 6.26 µM.
`COC(=O)C1(C(=O)OC)CC2c3c(c4ccccc4n3C)CC(C1=O)N2Cc1ccccc1` (centres undefined): the TGI in [1], in assay [2], in [3], in [4], in assay [5] and in assay [6] was greater than 100 µM throughout. Moreover, the TGI in assay [7], in assay [8], in assay [9] and in [10] was greater than 100 µM throughout.
With `O=C1C(=O)c2ccccc2-c2ccccc21`, the GI50 was 1.56 µM in [1]; 1.72 µM in assay [2]; 1.46 µM in assay [3]; 1.79 µM in assay [4]; 1.68 µM in [5]; 1.72 µM in assay [6]. Also, the GI50 in assay [7] was 2.02 µM; in assay [8] it was 1.39 µM; in [9], 1.45 µM; in assay [10] it was 1.44 µM. In addition, the TGI in assay [1] was found to be 4.11 µM; in assay [2], 5.24 µM; in [3], 2.93 µM; in [4], 3.31 µM; in assay [5] it was 3.99 µM; in assay [6], 3.2 µM. For the same molecule, the TGI is 4.79 µM in [7], 2.79 µM in assay [8], 2.95 µM in [9] and 2.82 µM in [10].
In the case of `COc1cc(-c2cc(=O)c3ccccc3o2)ccc1N`, the TGI in assay [1] is 71.5 µM; in [2] it was greater than 100 µM; in assay [3], greater than 100 µM; in assay [4] it was greater than 100 µM; in assay [5], greater than 100 µM; in assay [6] it was greater than 100 µM. Besides, the TGI in assay [7], in [8], in assay [9] and in [10] was greater than 100 µM throughout.

Values taken from PubChem BioAssay (NCI).
